Residue numbers refer to the chain shown, from its start. Several values for one entry are separate records, joined by “and”; a condition that tells them apart may be missing. Equal values may be shown once. Read-outs that look alike come from different tables or passages of the source.
Legend:
[1] = target: T1, E236A mutant 5-HT3A receptors (Mus musculus, UniProt P23979, E236A); assay: [3H]granisetron competition binding, E236A mutant 5-HT3A receptors
T1 construct: expressed in transfected cells; host or cells: HEK 293 cells (pcDNA3.1); Kunkel mutagenesis
T1 sequence (P23979 24-489 E236A): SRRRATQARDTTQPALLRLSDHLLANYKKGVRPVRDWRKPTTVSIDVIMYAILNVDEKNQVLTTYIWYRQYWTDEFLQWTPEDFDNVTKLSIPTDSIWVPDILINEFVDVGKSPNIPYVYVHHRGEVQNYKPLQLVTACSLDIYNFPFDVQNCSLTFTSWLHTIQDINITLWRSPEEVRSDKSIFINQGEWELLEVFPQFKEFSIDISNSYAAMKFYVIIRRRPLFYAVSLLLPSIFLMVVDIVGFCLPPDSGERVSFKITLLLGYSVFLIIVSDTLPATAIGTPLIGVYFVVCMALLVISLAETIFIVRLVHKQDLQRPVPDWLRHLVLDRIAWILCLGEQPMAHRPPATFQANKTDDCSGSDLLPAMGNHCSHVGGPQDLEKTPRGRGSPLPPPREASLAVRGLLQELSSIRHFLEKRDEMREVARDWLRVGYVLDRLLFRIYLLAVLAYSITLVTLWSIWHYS
Procedure: (§1) Mouse 5-HT3A (accession number: AY605711) or 5-HT3B (accession number: NM_020274, kindly provided by Ewen Kirkness) subunit cDNAs were cloned into pGEMHE for oocyte expression ([Liman et al., 1992]). cRNA was in vitro transcribed from linearised (NheI) plasmid cDNA template using the mMessage mMachine T7 kit (Ambion, Austin, Texas, USA). Stage V and VI oocytes were injected with 50 ng–100 ng cRNA, and recorded from 1–4 days post-injection. For expression in HEK 293 cells, 5-HT3 receptor subunit cDNAs were cloned into pcDNA3.1 (Invitrogen Ltd., Paisley, UK.). Mutagenesis reactions were performed using the Kunkel method and confirmed by DNA sequencing. […]
(§2) This was undertaken in HEK 293 cells which provide an established and robust method of studying ligand binding. […] Radioactivity was determined by scintillation counting using a Beckman LS6000SC (Fullerton, California, USA). Competition binding data were analyzed by iterative curve fitting (GraphPad Prism v3.02, GraphPad Software, San Diego, California, USA), according to the equation: y=Bmin+Bmax−Bmin/1+10^[L]−logIC50 where Bmin is the lowest total binding, Bmax is the maximum specific binding at equilibrium, [L] is the concentration of competing ligand and IC50 is the concentration of competing ligand that blocks half of the specific bound radioligand. […]

[2] = target: T2, N128A mutant 5-HT3A receptors (Mus musculus, UniProt P23979, N128A); assay: [3H]granisetron competition binding, N128A mutant 5-HT3A receptors
T2 construct: expressed in transfected cells; host or cells: HEK 293 cells (pcDNA3.1); Kunkel mutagenesis
T2 sequence (P23979 24-489 N128A): T1 sequence (P23979 24-489 E236A) with N105A, A213E
Procedure: as §1, §2

[3] = target: T3, 5-HT3A receptors (Mus musculus, UniProt P23979); assay: Agonist-induced currents in Xenopus oocytes expressing 5-HT3A receptors (OpusXpress electrophysiology); type: cell-based; conditions: for agonist character: 5-HT3A receptors; for Relative efficacy Rmax = Imax drug / Imax 5-HT: maximal concentration; for EC50: holding potential -60 mV; for Rmax, approximate summary value: discussion, stated for 5-HT3 receptors (5-HT3A and 5-HT3AB) without distinction; for EC50 relative to Ki: EC50 fold higher than Ki
T3 construct: expressed in transfected cells; host or cells: Xenopus laevis oocytes injected with cRNA (pGEMHE)
T3 sequence (P23979 24-489): T1 sequence (P23979 24-489 E236A) with A213E
Procedure: (§3) Harvested stage V–VI Xenopus oocytes were washed in six changes of ND96 (96 mM NaCl, 2 mM KCl, 1 mM MgCl2, 1.8 mM CaCl2, 5 mM HEPES, pH 7.5), de-folliculated in 1.5 mg ml^− 1 collagenase Type 1A for approximately 2 h. Enzyme treatment was terminated by washing in six changes of ND96 and oocytes were stored in ND96 containing 2.5 mM sodium pyruvate, […] and 0.7 mM theophylline.
(§4) Mouse 5-HT3A (accession number: AY605711) or 5-HT3B (accession number: NM_020274, kindly provided by Ewen Kirkness) subunit cDNAs were cloned into pGEMHE for oocyte expression ([Liman et al., 1992]). cRNA was in vitro transcribed from linearised (NheI) plasmid cDNA template using the mMessage mMachine T7 kit (Ambion, Austin, Texas, USA). Stage V and VI oocytes were injected with 50 ng–100 ng cRNA, and recorded from 1–4 days post-injection. For expression in HEK 293 cells, 5-HT3 receptor subunit cDNAs were cloned into pcDNA3.1 (Invitrogen Ltd., Paisley, UK.). Mutagenesis reactions were performed using the Kunkel method and confirmed by DNA sequencing. Cells were transfected using calcium phosphate precipitation at 80–90% confluency ([Jordan et al., 1996]). Following transfection cells were incubated for 3–4 days before assay.
(§5) Agonist-induced currents were recorded at 22–25 °C from individual oocytes using the OpusXpress system (Molecular Devices Axon Instruments, Union City, CA). […] The holding potential was − 60 mV.

[4] = target: T4, 5-HT3AB receptors (Mus musculus, UniProt P23979+Q9JHJ5); assay: [3H]granisetron binding to membranes of transfected HEK 293 cells, 5-HT3AB receptors
T4 construct: expressed in transfected cells; host or cells: Xenopus laevis oocytes injected with cRNA (pGEMHE)
T4 sequence (P23979 24-489): T1 sequence (P23979 24-489 E236A) with A213E
T4 sequence (Q9JHJ5 22-437): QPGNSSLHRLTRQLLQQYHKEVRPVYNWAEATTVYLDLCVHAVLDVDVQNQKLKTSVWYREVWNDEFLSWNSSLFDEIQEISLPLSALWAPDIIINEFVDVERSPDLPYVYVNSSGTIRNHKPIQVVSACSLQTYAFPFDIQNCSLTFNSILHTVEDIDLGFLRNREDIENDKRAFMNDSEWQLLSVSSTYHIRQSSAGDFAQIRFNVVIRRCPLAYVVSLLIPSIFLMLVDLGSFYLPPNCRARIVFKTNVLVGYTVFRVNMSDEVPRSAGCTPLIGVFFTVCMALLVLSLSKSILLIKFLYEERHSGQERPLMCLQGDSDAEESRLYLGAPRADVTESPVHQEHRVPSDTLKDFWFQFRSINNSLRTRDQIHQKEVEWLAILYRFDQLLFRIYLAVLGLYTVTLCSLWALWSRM
Procedure: as §4
(§6) This was undertaken in HEK 293 cells which provide an established and robust method of studying ligand binding. Methods were as previously described ([Lummis et al., 1993]), with minor modifications. Briefly, transfected HEK 293 cells were washed twice with phosphate buffered saline (PBS) at room temperature and scraped into 1 ml of ice-cold HEPES buffer (10 mM, pH 7.4) containing the following proteinase inhibitors (PI): 1 mM EDTA, 50 μg ml^− 1 soybean trypsin inhibitor, 50 μg/ml bacitracin and 0.1 mM phenylmethylsulphonyl fluoride. […] Competition binding was performed using ligand concentrations from 0.1 μM–10 mM. Reactions were incubated for at least 1 h at 4 °C and terminated by vacuum filtration using a Brandel cell harvester onto GF/B filters pre-soaked in 0.3% polyethyleneimine. Radioactivity was determined by scintillation counting using a Beckman LS6000SC (Fullerton, California, USA). Competition binding data were analyzed by iterative curve fitting (GraphPad Prism v3.02, GraphPad Software, San Diego, California, USA), according to the equation: y=Bmin+Bmax−Bmin/1+10^[L]−logIC50 where Bmin is the lowest total binding, Bmax is the maximum specific binding at equilibrium, [L] is the concentration of competing ligand and IC50 is the concentration of competing ligand that blocks half of the specific bound radioligand. Ki values were estimated from IC50 values using the Cheng–Prusoff equation: Ki=IC50/1+[L]/Kd
(§7) where Ki is the equilibrium dissociation constant for binding of the unlabeled antagonist, [L] is the concentration of radioligand and Kd is the equilibrium dissociation constant of the radioligand.

[5] = target: T4, 5-HT3AB receptors; assay: Agonist-induced currents in Xenopus oocytes expressing 5-HT3AB receptors (OpusXpress electrophysiology); type: cell-based; conditions: for agonist character: 5-HT3AB receptors; for Relative efficacy Rmax = Imax drug / Imax 5-HT: maximal concentration; for EC50: holding potential -60 mV
Procedure: as §3, §4, §5

[6] = target: T3, 5-HT3A receptors; assay: [3H]granisetron binding to membranes of transfected HEK 293 cells, 5-HT3A receptors; conditions: for Ki relative to the Ki for 5-HT: 5-HT3A receptors, fold greater than 5-HT; for Ki: WT 5-HT3A receptors, HEK 293 membranes, 0.5 nM [3H]granisetron, 4 °C
Procedure: as §4, §6, §7

[7] = target: T3, 5-HT3A receptors; conditions: discussion; compound not tested in this paper; no reference given; cited from earlier work
[8] = 5-HT3A receptors in Xenopus oocytes
[9] = EC50, 5-HT3A receptors in Xenopus oocytes
[10] = 5-HT3AB receptors in Xenopus oocytes
[11] = Ki, displacement of [3H]granisetron binding
[12] = 5-HT3AB receptors, HEK 293 membranes, 0.5 nM [3H]granisetron, 4 °C, read-out: Ki, displacement of [3H]granisetron binding
[13] = 5-HT3AB receptors in Xenopus oocytes, read-out: EC50
[14] = read-out: Ki, displacement of [3H]granisetron binding

SMILES | agonist character [3] | nH (Hill slope) [3, 8] | Relative efficacy Rmax = Imax drug / Imax 5-HT [3, 8] | EC50 [3, 9] | Rmax, approximate summary value [3] | Ki [4] [µM] | agonist character [5] | nH (Hill slope) [5, 10] | Relative efficacy Rmax = Imax drug / Imax 5-HT [5, 10] | Ki relative to the Ki for 5-HT [6] [fold] | Ki [6, 11] | also measured
NCCc1c[nH]c2ccc(F)cc12 [5-FT, 5-fluorotryptamine] | partial agonist | 2.4 and 2.4 ± 0.5 | 0.64 and 0.64 ± 0.03 | 16 µM | ~0.5 | 1.8 ± 0.4 | partial agonist | 1.4 and 1.4 ± 0.3 | 0.45 and 0.45 ± 0.04 | ~10 | 0.8 µM and 0.83 µM | Ki [1]: 1.62 ± 0.41 µM; Ki [2]: 2.43 ± 0.47 µM; EC50 ([5]; EC50, 5-HT3AB receptors in Xenopus oocytes): 27 µM
Cc1[nH]c2ccc(O)cc2c1CCN [2-methyl-5-HT] |  |  |  |  |  |  |  |  |  |  |  | Rmax, approximate value [7]: ~0.2
NCCc1c[nH]c2ccc(Cl)cc12 [5-ClT, 5-chlorotryptamine] | very weak partial agonist |  | 0.0037 | 8.1 µM and 8 µM |  | 3.1 ± 1.1 |  |  |  | ~10 | 2.7 ± 0.7 µM | EC50 relative to Ki [3]: less than 5 fold
NCCc1c[nH]c2ccc(O)cc12 [5-HT] |  |  |  |  |  |  |  | 1.4 and 1.4 ± 0.4 |  |  |  | 
NCCc1c[nH]c2ccccc12 [tryptamine] | partial agonist | 2.5 and 2.5 ± 0.5 | 0.15 |  | ~0.15 |  | partial agonist | 1.8 and 1.8 ± 0.5 | 0.14 ± 0.02 | ~50 |  | EC50 ([3]; 5-HT3A receptors in Xenopus oocytes, mean ± SEM, read-out: pEC50 (converted)): 123 µM; Relative efficacy Rmax = Imax drug / Imax 5-HT ([3]; 5-HT3A receptors in Xenopus oocytes, listed as Tryptamine): 0.15 ± 0.06; EC50 relative to both 5-HT and 5-FT ([3]; EC50 fold higher than 5-HT and 5-FT, both receptor types): 10–100 fold; potency (EC50) relative to 5-HT ([3]; fold less potent / EC50 higher than 5-HT, stated for 5-HT3A and 5-HT3AB receptors together): ~100 fold; Ki [4, 12]: 15.5 ± 3.5 µM; EC50 ([5]; 5-HT3AB receptors in Xenopus oocytes, mean ± SEM, read-out: pEC50 (converted)): 60.3 µM; EC50 [5, 13]: 61 µM; Ki [6, 14]: 4.8 ± 0.9 µM
Cc1ccc2[nH]cc(CCN)c2c1 [5-MeT, 5-methyltryptamine] | very weak partial agonist |  | 0.0023 | 60 ± 3 µM |  | 7.7 ± 1.1 |  |  |  | ~100 |  | EC50 relative to Ki [3]: less than 5 fold
N=C(N)NC(=N)Nc1cccc(Cl)c1 [mCPBG, m-chlorophenylbiguanide] | partial agonist | 2.3 and 2.3 ± 0.4 | 0.74 ± 0.07 |  | ~0.8 |  | full agonist | 1.6 and 1.6 ± 0.4 | 0.92 ± 0.09 |  |  | EC50 ([3]; 5-HT3A receptors in Xenopus oocytes, read-out: EC50): 0.5 µM; Ki [4, 12]: 0.012 ± 0.004 µM; EC50 [5, 13]: 1.1 µM; Ki [6, 14]: 0.01 ± 0.003 µM
COc1ccc2[nH]cc(CCN)c2c1 [5-MeOT, 5-methoxytryptamine] |  |  |  |  |  | 21.7 ± 2.1 |  |  |  | ~300 | 34.9 ± 3 µM | activation of 5-HT3 receptors ([3]; concentrations up to 10 mM, examined in 5-HT3A receptors): unable to activate

— PMC2649378 (European Journal of Pharmacology, 2008)
